In US20260193264A1, “BENZOYPARAZINE PYRAZINES AND THEIR USES” (FOGHORN THERAPEUTICS INC., priority 2022, published 2026):

How the values were obtained:
[1] = biological target: T1, HiBiT-BRM fusion protein in stable HeLa cell line (Homo sapiens, UniProt P51531); assay: HiBiT-BRM cell-based degradation assay (Nano-Glo HiBiT Lytic Detection, 24 h); set-up: DC50: scale not given here; conditions: HeLa HiBiT-BRM cells; for DC50: read-out: BRM HiBit Degradation IC50; for BRM HiBit Degradation Maximum (%): top dose 30 μM
T1 construct: expressed in transfected cells
In short: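 HeLa stably expressing HiBiT-BRM; 24 h compound exposure, 10-pt 3-fold dilution from 30 μM final, duplicates. Lytic LgBiT complementation, luminescence. % degradation vs DMSO (HC) and 2 μM known BRM/BRG1 degrader (LC).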

[2] = biological target: T2, HiBit-BRG1 fusion protein in stable HeLa cell line expressing HiBit-BRG1 and LgBit (Homo sapiens, UniProt P51532); assay: HiBiT-BRG1 cell-based degradation assay (Nano-Glo HiBiT, 24 h); conditions: HeLa HiBit-BRG1/LgBit cells; for DC50: read-out: BRMG1 HiBit Degradation IC50; for Dmax: top dose 30 μM, read-out: BRG1 HiBit Degradation Maximum (%)
T2 construct: expressed in transfected cells
In short: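 Degradation calculated from NanoBiT luminescence relative to DMSO-treated cells (high) and cells given 2 μM known BRM/BRG1 degrader (low). HeLa cells stably expressing HiBiT-BRG1 plus LgBiT were exposed to compound for 24 h before lytic HiBiT detection.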

T2 sequence (P51532 whole entry, the tested form may be a part): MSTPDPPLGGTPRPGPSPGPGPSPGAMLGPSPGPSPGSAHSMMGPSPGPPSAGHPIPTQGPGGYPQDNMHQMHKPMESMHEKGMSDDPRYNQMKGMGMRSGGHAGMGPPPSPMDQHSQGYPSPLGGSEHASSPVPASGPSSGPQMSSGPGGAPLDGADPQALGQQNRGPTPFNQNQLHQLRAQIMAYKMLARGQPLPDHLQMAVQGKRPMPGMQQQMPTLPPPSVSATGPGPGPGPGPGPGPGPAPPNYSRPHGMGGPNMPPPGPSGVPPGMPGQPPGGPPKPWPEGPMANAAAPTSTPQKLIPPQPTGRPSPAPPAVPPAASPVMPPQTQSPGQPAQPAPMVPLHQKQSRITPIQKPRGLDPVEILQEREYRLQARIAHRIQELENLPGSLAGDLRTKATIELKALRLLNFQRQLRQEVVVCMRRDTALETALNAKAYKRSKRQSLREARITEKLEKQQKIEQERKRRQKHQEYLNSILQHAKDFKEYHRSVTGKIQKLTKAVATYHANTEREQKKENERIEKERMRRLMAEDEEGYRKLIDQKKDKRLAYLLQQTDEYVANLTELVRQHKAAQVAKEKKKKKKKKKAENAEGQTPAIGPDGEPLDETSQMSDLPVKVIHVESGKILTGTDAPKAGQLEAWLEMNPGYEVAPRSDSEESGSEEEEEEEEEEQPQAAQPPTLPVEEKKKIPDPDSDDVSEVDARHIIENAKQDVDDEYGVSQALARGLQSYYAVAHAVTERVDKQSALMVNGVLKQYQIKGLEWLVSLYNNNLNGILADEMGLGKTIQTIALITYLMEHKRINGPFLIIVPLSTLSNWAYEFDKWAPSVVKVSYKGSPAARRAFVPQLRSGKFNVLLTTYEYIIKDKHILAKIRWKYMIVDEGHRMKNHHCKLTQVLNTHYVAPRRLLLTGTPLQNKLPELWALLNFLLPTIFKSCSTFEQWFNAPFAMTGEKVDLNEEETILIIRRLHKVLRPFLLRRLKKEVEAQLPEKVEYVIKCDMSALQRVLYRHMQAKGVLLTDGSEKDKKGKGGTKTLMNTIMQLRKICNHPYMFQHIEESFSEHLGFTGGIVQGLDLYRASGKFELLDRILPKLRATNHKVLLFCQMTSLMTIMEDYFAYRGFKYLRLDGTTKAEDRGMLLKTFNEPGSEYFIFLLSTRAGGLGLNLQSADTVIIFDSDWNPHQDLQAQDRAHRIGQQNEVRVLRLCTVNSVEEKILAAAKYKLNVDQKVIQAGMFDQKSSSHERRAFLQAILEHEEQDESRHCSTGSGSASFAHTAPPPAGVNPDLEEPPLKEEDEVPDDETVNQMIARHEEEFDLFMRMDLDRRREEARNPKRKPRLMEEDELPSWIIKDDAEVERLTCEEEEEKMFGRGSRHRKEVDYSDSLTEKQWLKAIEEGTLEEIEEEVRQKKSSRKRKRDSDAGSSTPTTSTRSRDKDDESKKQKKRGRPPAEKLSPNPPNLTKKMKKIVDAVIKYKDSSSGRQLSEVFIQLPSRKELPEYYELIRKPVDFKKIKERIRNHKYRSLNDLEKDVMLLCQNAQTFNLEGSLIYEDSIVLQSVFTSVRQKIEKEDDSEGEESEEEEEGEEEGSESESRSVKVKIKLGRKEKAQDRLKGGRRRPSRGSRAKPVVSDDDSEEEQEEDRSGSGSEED
T1 sequence (P51531 whole entry, the tested form may be a part): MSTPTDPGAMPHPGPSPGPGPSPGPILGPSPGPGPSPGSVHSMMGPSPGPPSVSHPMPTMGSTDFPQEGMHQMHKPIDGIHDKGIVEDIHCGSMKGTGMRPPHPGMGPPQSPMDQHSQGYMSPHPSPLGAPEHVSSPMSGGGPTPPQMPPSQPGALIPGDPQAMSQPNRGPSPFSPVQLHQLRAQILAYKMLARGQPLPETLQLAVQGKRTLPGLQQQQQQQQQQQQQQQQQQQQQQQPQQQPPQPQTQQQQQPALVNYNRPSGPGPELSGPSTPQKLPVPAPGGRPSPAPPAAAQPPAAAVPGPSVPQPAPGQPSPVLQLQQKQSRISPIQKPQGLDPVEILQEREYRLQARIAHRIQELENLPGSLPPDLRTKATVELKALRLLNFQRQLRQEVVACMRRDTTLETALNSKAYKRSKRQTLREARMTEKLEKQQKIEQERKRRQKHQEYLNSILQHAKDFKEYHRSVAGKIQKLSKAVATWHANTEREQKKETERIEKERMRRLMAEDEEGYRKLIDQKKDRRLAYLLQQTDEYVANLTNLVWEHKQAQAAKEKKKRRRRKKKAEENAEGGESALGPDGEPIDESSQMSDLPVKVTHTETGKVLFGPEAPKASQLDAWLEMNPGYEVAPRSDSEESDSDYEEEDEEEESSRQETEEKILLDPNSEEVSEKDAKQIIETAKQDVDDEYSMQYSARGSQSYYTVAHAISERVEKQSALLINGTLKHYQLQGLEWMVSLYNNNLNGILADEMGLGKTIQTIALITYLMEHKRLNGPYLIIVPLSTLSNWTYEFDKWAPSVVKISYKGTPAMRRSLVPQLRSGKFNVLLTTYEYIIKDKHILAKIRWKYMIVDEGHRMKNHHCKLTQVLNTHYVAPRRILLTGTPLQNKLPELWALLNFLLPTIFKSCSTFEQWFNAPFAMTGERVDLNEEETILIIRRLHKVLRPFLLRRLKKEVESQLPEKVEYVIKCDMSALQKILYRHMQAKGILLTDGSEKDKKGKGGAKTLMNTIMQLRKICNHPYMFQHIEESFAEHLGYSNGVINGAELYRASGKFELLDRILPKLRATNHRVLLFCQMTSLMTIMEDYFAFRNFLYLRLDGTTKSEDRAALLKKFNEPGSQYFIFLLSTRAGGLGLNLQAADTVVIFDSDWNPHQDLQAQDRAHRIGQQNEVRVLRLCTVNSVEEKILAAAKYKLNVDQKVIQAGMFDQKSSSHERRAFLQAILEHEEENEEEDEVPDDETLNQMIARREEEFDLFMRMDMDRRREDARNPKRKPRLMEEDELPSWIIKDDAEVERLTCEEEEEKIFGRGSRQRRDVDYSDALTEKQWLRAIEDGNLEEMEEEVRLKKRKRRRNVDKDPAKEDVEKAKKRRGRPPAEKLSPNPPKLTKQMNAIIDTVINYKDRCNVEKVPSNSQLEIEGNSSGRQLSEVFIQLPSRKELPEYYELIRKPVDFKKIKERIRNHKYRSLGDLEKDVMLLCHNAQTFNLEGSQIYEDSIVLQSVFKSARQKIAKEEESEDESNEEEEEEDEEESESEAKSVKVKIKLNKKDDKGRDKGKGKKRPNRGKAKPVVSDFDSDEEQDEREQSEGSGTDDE

Cc1ncsc1-c1ccc([C@H](C)NC(=O)[C@@H]2C[C@@H](O)CN2C(=O)[C@@H](c2cc(N3CC[C@H](c4ccc5cc(-c6ccccc6O)nnc5c4)C3)no2)C(C)C)cc1 [Compound 60, (2S,4R)-4-hydroxy-1-((R)-2-(3-((R)-3-(3-(2-hydroxyphenyl)cinnolin-7-yl)pyrrolidin-1-yl)isoxazol-5-yl)-3-methylbutanoyl)-N-((S)-1-(4-(4-methylthiazol-5-yl)phenyl)ethyl)pyrrolidine-2-carboxamide]
DC50 [1]: < 10 nM | BRM HiBit Degradation Maximum (%) [1]: A (“A” indicates maximum degradation ≥75%) | DC50 [2]: < 10 nM | Dmax [2]: > 75%

Cc1ncsc1-c1ccc([C@H](C)NC(=O)[C@@H]2C[C@@H](O)CN2C(=O)[C@@H](c2cc(N3CCC(c4ccc5nnc(-c6ccccc6O)cc5c4)CC3)no2)C(C)C)cc1 [Compound 61, (2S,4R)-4-hydroxy-1-((R)-2-(3-(4-(3-(2-hydroxyphenyl)cinnolin-6-yl)piperidin-1-yl)isoxazol-5-yl)-3-methylbutanoyl)-N-((S)-1-(4-(4-methylthiazol-5-yl)phenyl)ethyl)pyrrolidine-2-carboxamide]
DC50 [1]: > 10 nM | BRM HiBit Degradation Maximum (%) [1]: A (“A” indicates maximum degradation ≥75%) | Dmax [2]: < 50%

Cc1ncsc1-c1ccc([C@H](C)NC(=O)[C@@H]2C[C@@H](O)CN2C(=O)[C@@H](c2cc(N3CC4(CCC(c5ccc6nnc(-c7ccccc7O)cc6c5)CC4)C3)no2)C(C)C)cc1 [Compound 62, (2S,4R)-4-hydroxy-1-((R)-2-(3-(7-(3-(2-hydroxyphenyl)cinnolin-6-yl)-2-azaspiro[3.5]nonan-2-yl)isoxazol-5-yl)-3-methylbutanoyl)-N-((S)-1-(4-(4-methylthiazol-5-yl)phenyl)ethyl)pyrrolidine-2-carboxamide]
DC50 [1]: < 10 nM | BRM HiBit Degradation Maximum (%) [1]: A (“A” indicates maximum degradation ≥75%) | DC50 [2]: > 10 nM | Dmax [2]: > 75%

Cc1cc(-c2cc([C@H](C(=O)N3C[C@H](O)C[C@H]3C(=O)N[C@@H](C)c3ccc(-c4scnc4C)cc3)C(C)C)on2)cnc1N1CCC(c2ccc3nnc(-c4ccccc4O)cc3c2)CC1 [Compound 64, (2S,4R)-4-hydroxy-1-((R)-2-(3-(6-(4-(3-(2-hydroxyphenyl)cinnolin-6-yl)piperidin-1-yl)-5-methylpyridin-3-yl)isoxazol-5-yl)-3-methylbutanoyl)-N-((S)-1-(4-(4-methylthiazol-5-yl)phenyl)ethyl)pyrrolidine-2-carboxamide]
DC50 [1]: < 10 nM | BRM HiBit Degradation Maximum (%) [1]: A (“A” indicates maximum degradation ≥75%) | DC50 [2]: > 10 nM | Dmax [2]: > 50%

Cc1ncsc1-c1ccc([C@H](C)NC(=O)[C@@H]2C[C@@H](O)CN2C(=O)[C@@H](c2cc(N3CC4(CN(c5ccc6nnc(-c7ccccc7O)cc6c5)C4)C3)no2)C(C)C)cc1 [Compound 66, (2S,4R)-4-hydroxy-1-((R)-2-(3-(6-(3-(2-hydroxyphenyl)cinnolin-6-yl)-2,6-diazaspiro[3.3]heptan-2-yl)isoxazol-5-yl)-3-methylbutanoyl)-N-((S)-1-(4-(4-methylthiazol-5-yl)phenyl)ethyl)pyrrolidine-2-carboxamide]
DC50 [1]: < 10 nM | BRM HiBit Degradation Maximum (%) [1]: A (“A” indicates maximum degradation ≥75%) | Dmax [2]: < 50%

Cc1ncsc1-c1ccc([C@H](C)NC(=O)[C@@H]2C[C@@H](O)CN2C(=O)[C@@H](c2cc(N3CCC4(CC3)CN(c3ccc5nnc(-c6ccccc6O)cc5c3)C4)no2)C(C)C)cc1 [Compound 67, (2S,4R)-4-hydroxy-1-((R)-2-(3-(2-(3-(2-hydroxyphenyl)cinnolin-6-yl)-2,7-diazaspiro[3.5]nonan-7-yl)isoxazol-5-yl)-3-methylbutanoyl)-N-((S)-1-(4-(4-methylthiazol-5-yl)phenyl)ethyl)pyrrolidine-2-carboxamide]
DC50 [1]: < 10 nM | BRM HiBit Degradation Maximum (%) [1]: A (“A” indicates maximum degradation ≥75%) | DC50 [2]: > 10 nM | Dmax [2]: > 75%

Cc1ncsc1-c1ccc([C@H](C)NC(=O)[C@@H]2C[C@@H](O)CN2C(=O)[C@@H](c2cc(-c3cnc(N4CC(c5cc6nnc(-c7ccccc7O)cc6cc5C5CC5)C4)nc3)no2)C(C)C)cc1 [Compound 68, (2S,4R)-1-((R)-2-(3-(2-(3-(6-cyclopropyl-3-(2-hydroxyphenyl)cinnolin-7-yl)azetidin-1-yl)pyrimidin-5-yl)isoxazol-5-yl)-3-methylbutanoyl)-4-hydroxy-N-((S)-1-(4-(4-methylthiazol-5-yl)phenyl)ethyl)pyrrolidine-2-carboxamide]
DC50 [1]: < 10 nM | BRM HiBit Degradation Maximum (%) [1]: A (“A” indicates maximum degradation ≥75%) | DC50 [2]: > 10 nM | Dmax [2]: > 75%

Cc1nc(N2CCC(c3ccc4nnc(-c5ccccc5O)cc4c3)CC2)ccc1-c1cc([C@H](C(=O)N2C[C@H](O)C[C@H]2C(=O)N[C@@H](C)c2ccc(-c3scnc3C)cc2)C(C)C)on1 [Compound 69, (2S,4R)-4-hydroxy-1-((R)-2-(3-(6-(4-(3-(2-hydroxyphenyl)cinnolin-6-yl)piperidin-1-yl)-2-methylpyridin-3-yl)isoxazol-5-yl)-3-methylbutanoyl)-N-((S)-1-(4-(4-methylthiazol-5-yl)phenyl)ethyl)pyrrolidine-2-carboxamide]
DC50 [1]: < 10 nM | BRM HiBit Degradation Maximum (%) [1]: A (“A” indicates maximum degradation ≥75%) | DC50 [2]: > 100 nM | Dmax [2]: > 50%

Cc1cc(N2CCC(c3ccc4nnc(-c5ccccc5O)cc4c3)CC2)ncc1-c1cc([C@H](C(=O)N2C[C@H](O)C[C@H]2C(=O)N[C@@H](C)c2ccc(-c3scnc3C)cc2)C(C)C)on1 [Compound 70, (2S,4R)-4-hydroxy-1-((R)-2-(3-(6-(4-(3-(2-hydroxyphenyl)cinnolin-6-yl)piperidin-1-yl)-4-methylpyridin-3-yl)isoxazol-5-yl)-3-methylbutanoyl)-N-((S)-1-(4-(4-methylthiazol-5-yl)phenyl)ethyl)pyrrolidine-2-carboxamide]
DC50 [1]: > 10 nM | BRM HiBit Degradation Maximum (%) [1]: A (“A” indicates maximum degradation ≥75%) | DC50 [2]: > 10 nM | Dmax [2]: > 50%

Cc1ncsc1-c1ccc([C@H](C)NC(=O)[C@@H]2C[C@@H](O)CN2C(=O)[C@@H](c2cc(N3CCC4(CC3)CC(c3ccc5nnc(-c6ccccc6O)cc5c3)C4)no2)C(C)C)cc1 [Compound 71, (2S,4R)-4-hydroxy-1-[(2R)-2-(3-{2-[3-(2-hydroxyphenyl)cinnolin-6-yl]-7-azaspiro[3.5]nonan-7-yl}-1,2-oxazol-5-yl)-3-methylbutanoyl]-N-[(1S)-1-[4-(4-methyl-1,3-thiazol-5-yl)phenyl]ethyl]pyrrolidine-2-carboxamide]
DC50 [1]: < 10 nM | BRM HiBit Degradation Maximum (%) [1]: A (“A” indicates maximum degradation ≥75%) | DC50 [2]: < 10 nM | Dmax [2]: > 75%

Cc1ncsc1-c1ccc([C@H](C)NC(=O)[C@@H]2C[C@@H](O)CN2C(=O)[C@@H](c2cc(N3CCC4(CCN(c5ccc6nnc(-c7ccccc7O)cc6c5)C4)CC3)no2)C(C)C)cc1 [Compound 72, (2S,4R)-4-hydroxy-1-((R)-2-(3-(2-(3-(2-hydroxyphenyl)cinnolin-6-yl)-2,8-diazaspiro [4.5]decan-8-yl)isoxazol-5-yl)-3-methylbutanoyl)-N-((S)-1-(4-(4-methylthiazol-5-yl)phenyl)ethyl)pyrrolidine-2-carboxamide]
DC50 [1]: < 10 nM | BRM HiBit Degradation Maximum (%) [1]: A (“A” indicates maximum degradation ≥75%) | DC50 [2]: > 10 nM | Dmax [2]: > 75%

Cc1ncsc1-c1ccc([C@H](C)NC(=O)[C@@H]2C[C@@H](O)CN2C(=O)[C@@H](c2cc(N3CC[C@@H](c4ccc5nnc(-c6ccccc6O)cc5c4)C3)no2)C(C)C)cc1 [Compound 73, (2S,4R)-4-hydroxy-1-((R)-2-(3-((S)-3-(3-(2-hydroxyphenyl)cinnolin-6-yl)pyrrolidin-1-yl)isoxazol-5-yl)-3-methylbutanoyl)-N-((S)-1-(4-(4-methylthiazol-5-yl)phenyl)ethyl)pyrrolidine-2-carboxamide]
DC50 [1]: < 10 nM | BRM HiBit Degradation Maximum (%) [1]: A (“A” indicates maximum degradation ≥75%) | Dmax [2]: < 50%

Cc1ncsc1-c1ccc([C@H](C)NC(=O)[C@@H]2C[C@@H](O)CN2C(=O)[C@@H](c2cc(N3CCC(c4ccc5cc(-c6ccccc6O)nnc5c4)CC3)no2)C(C)C)cc1 [Compound 74, (2S,4R)-4-hydroxy-1-((R)-2-(3-(4-(3-(2-hydroxyphenyl)cinnolin-7-yl)piperidin-1-yl)isoxazol-5-yl)-3-methylbutanoyl)-N-((S)-1-(4-(4-methylthiazol-5-yl)phenyl)ethyl)pyrrolidine-2-carboxamide]
DC50 [1]: < 10 nM | BRM HiBit Degradation Maximum (%) [1]: A (“A” indicates maximum degradation ≥75%) | Dmax [2]: < 50%

Cc1ncsc1-c1ccc([C@H](C)NC(=O)[C@@H]2C[C@@H](O)CN2C(=O)[C@@H](c2cc(N3CCC4(CC[C@H](c5ccc6nnc(-c7ccccc7O)cc6c5)C4)CC3)no2)C(C)C)cc1 [Compound 75, (2S,4R)-4-hydroxy-1-((R)-2-(3-((S)-2-(3-(2-hydroxyphenyl)cinnolin-6-yl)-8-azaspiro[4.5]decan-8-yl)isoxazol-5-yl)-3-methylbutanoyl)-N-((S)-1-(4-(4-methylthiazol-5-yl)phenyl)ethyl)pyrrolidine-2-carboxamide]
DC50 [1]: < 10 nM | BRM HiBit Degradation Maximum (%) [1]: A (“A” indicates maximum degradation ≥75%) | DC50 [2]: > 10 nM | Dmax [2]: > 75%
